Reference: patent publication US9499811B2, “Ligation enhancement” (New England Biolabs, Inc., priority 2011, dated 2016)
Entries after “also recorded” stand apart in the source; their conditions may differ.

Columns and labels:
T4 DNA ligase [1] = biological target: T1, T4 DNA ligase (Enterobacteria phage T4, UniProt P00970); assay: Ligation of one, two or three pUC19 fragments with single-base overhangs, transformation and gel analysis; format: biochemical; parameters: purchased NEB (New England Biolabs), Ipswich, Mass. #M0202; conditions: for Ligation/Subsequent Transformation Enhancement: 12% 1,2-PrD vs none; for Transformation Efficiency +1,2-PrD / Resultant Colonies +1,2-PrD: 12% 1,2-PrD; for Resultant Colonies +1,2-PrD: 20 pg DNA plated
T1 sequence (P00970 1-487): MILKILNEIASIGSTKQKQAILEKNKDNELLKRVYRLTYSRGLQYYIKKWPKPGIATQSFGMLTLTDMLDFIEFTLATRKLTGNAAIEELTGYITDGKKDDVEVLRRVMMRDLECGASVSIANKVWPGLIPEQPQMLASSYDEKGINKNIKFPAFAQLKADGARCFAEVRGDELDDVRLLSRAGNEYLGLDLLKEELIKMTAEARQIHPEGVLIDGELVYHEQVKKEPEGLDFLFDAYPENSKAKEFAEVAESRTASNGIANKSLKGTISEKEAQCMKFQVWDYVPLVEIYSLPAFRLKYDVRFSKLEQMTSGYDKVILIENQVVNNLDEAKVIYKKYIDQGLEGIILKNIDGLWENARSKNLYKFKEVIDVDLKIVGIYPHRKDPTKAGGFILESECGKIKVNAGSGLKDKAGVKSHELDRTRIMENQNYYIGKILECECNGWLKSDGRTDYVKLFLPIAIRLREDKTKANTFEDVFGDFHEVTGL
Procedure: FIGS. 4A-C show agarose gel electrophoresis analysis of ligation products achieved using +/−12% 1,2-PrD for one, two and three pUC19 fragment sets as described in FIGS. 3A-C. The marker lane indicated by M corresponds to 1 μg of a 2-log DNA ladder, New England Biolabs, Inc. (NEB), Ipswich, Mass., #3200. (1) is a 2686-bp linear AhdI-pUC19 fragment; (2) are 1527-bp and 1159-bp BciVI fragments; (3) are 2 lengths (2275-bp and 287-bp) of 3 BccI fragments where the third 124-bp fragment is not visible on the gel; (4) is a linearized intermediate ligation product formed by 2275-bp and 287-bp BccI fragments; (5) is the desired ligated/circularized plasmid which is a highly transformable desired product; and (6) are different kinds of linear and circular undesired concatameric ligation products which are not highly transformable.
For chemically competent cell transformations, the cell-DNA mixture was incubated on ice for 30 min, heat-shocked at 42° C. for 30 sec, then returned to ice for 5 min. A volume of 950 μl SOC medium (2% vegetable peptone or Tryptone, 0.5% yeast extract, 10 mM NaCl, 2.5 mM KCl, 10 mM MgCl2, 10 mM MgSO4 and 20 mM glucose) was added to the cell-DNA mixture, followed by a one hr 37° C. outgrowth period with agitation. A volume of 25-50 μl of appropriately diluted cells in SOC was spread onto Rich Agar plates (composition per liter: 10 g soy peptone, 5 g yeast extract, 10 g NaCl, 1 g MgCl2-6H2O, 1 g dextrose, 15 grams agar) supplemented with 100 μg/ml ampicillin. Plates were inverted and incubated for 16 hrs at 37° C., followed by quantification of total colony numbers.
Single fragment ligation (recircularization), two fragment ligation (cloning) and three fragment ligation (assembly) reactions were performed in the presence of 1,2-PrD (see FIGS. 3A-C). Restriction digests of pUC19 plasmid constructs were performed to completion by monitoring the reactions using 1% agarose gel electrophoresis. Upon completion all restriction enzymes were heat-inactivated by incubating the reaction for 20 min at 65° C. The DNA was purified by use of QiaQuick® (Qiagen, Valencia, Calif.) spin columns and quantified by comparison to known DNA standards by 1% agarose gel electrophoresis. […] Ligation reactions were performed as described in FIGS. 3A-C using 100 ng of DNA that had been restricted by AhdI, BciVI or BccI to leave a variety of single-base overhangs. From each 21 μl ligation reaction, 2 μl was used for transformation as analyzed in Table 4 and 19 μl was run on a 1% agarose gel prepared with tris-borate as described in FIGS. 4A-C. […] This is the highly transformable DNA circularized form.
The ligations took place with and without 12% 1,2-PrD present for 10 min at room temperature (25° C.) with 2000 units T4 DNA ligase. A volume of 2 μl from each ligation reaction was transformed into chemically competent DH5 alpha cells as described in Example 1. A volume of 40 μl of a 1:20 dilution of the outgrowth in SOC medium was plated on medium Rich Agar plates supplemented with ampicillin. This volume corresponded to 20 pg of DNA from the original ligation reaction.

T4 DNA ligase [2] = biological target: T1, T4 DNA ligase; assay: Transformants after ligation of AhdI-linearized pUC19 in T4 DNA ligase buffer vs Quick Ligase buffer containing PEG 6000; format: biochemical; parameters: purchased NEB (New England Biolabs), Ipswich, Mass. #M0202; conditions: 1,2-PrD in regular ligase buffer, chemically competent cells
Procedure: The Y-axis is transformants per 10 pg DNA (transformations w/chemically competent cells.) The X-axis is regular ligase buffer (RLB) with the percentage of added 1,2-PrD given in parentheses. The quick ligase buffer (QLB) has PEG in it to enhance ligation.
The reaction mixtures contained DNA at 50-100 ng and 1,2-PrD at different concentrations. 1 μl of regular concentration (NEB, Ipswich, Mass., #M0202; 400 units) or 1 μl of high concentration T4 DNA ligase (NEB, Ipswich, Mass., #M0202; 2000 units) was then added to a final volume of 21 μl in 1×T4 DNA Ligase Buffer (NEB, Ipwich, Mass., #B0202) or 1× Quick Ligase™ Buffer (NEB, Ipswich, Mass., #B2200).
For chemically competent cell transformations, the cell-DNA mixture was incubated on ice for 30 min, heat-shocked at 42° C. for 30 sec, then returned to ice for 5 min. […] Plates were inverted and incubated for 16 hrs at 37° C., followed by quantification of total colony numbers.
Ligations were performed in both buffers using 50 ng of AhdI-linearized pUC19 double-stranded DNA (containing single-base overhangs) following the conditions described in Example 1. A total of 10 pg DNA (40 μl of a 1:20 dilution of the SOC outgrowth) was used per plate and transformants were counted after 16 hrs at 37° C.

[3] = 1 fragment (AhdI-linearized pUC19)

SMILES: CC(O)CO (centres unmarked) [1,2-PrD, 1,2-propanediol]
- Ligation/Subsequent Transformation Enhancement (T4 DNA ligase [1]; [3]): 12-fold
- Ligation/Subsequent Transformation Enhancement (T4 DNA ligase [1]; 2 fragments (BciVI-pUC19)): At least 35-fold
- Ligation/Subsequent Transformation Enhancement (T4 DNA ligase [1]; 3 fragments (BccI-pUC19)): 18-fold
- Transformation Efficiency +1,2-PrD (T4 DNA ligase [1]; [3]): 51.4 × 10e^6/μg DNA
- Resultant Colonies +1,2-PrD (T4 DNA ligase [1]; 1 fragment (AhdI-linearized pUC19), 2000 units T4 DNA ligase, 10 min 25 C): 1027
- Transformation Efficiency +1,2-PrD (T4 DNA ligase [1]; 2 fragments (BciVI-pUC19)): 1.8 × 10e^6/μg DNA
- Resultant Colonies +1,2-PrD (T4 DNA ligase [1]; 2 fragments (BciVI-pUC19)): 35
- Transformation Efficiency +1,2-PrD (T4 DNA ligase [1]; 3 fragments (BccI-pUC19)): 1.85 × 10e^6/μg DNA
- Resultant Colonies +1,2-PrD (T4 DNA ligase [1]; 3 fragments (BccI-pUC19)): 37
- Amount of ligated circularized plasmid on agarose gel (T4 DNA ligase [1]; +/-12% 1,2-PrD, one, two and three pUC19 fragment sets (FIGS. 4A-C)): significant beneficial effect on the amount of ligated circularized plasmid
- Transformants per 10 pg DNA compared with PEG-containing Quick Ligase buffer (T4 DNA ligase [2]): enhanced DNA ligation at least as much as PEG containing Quick Ligase; also recorded: achieved the level of transformation expected or greater than in PEG-containing (quick ligase) buffers
